Data taken from PubChem BioAssay (NCI).
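All cell lines were grown in 96-well plates and treated with compound for 48 hours. TGI: total growth inhibition.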

Assays:
Test in all cases: NCI tumour cell line growth inhibition, 48 h
HT29 colon = test system: HT29 colon
SK-OV-3 ovarian = test system: SK-OV-3 ovarian
A498 renal = test system: A498 renal
NCI-H226 lung = test system: NCI-H226 lung
SN12C renal = test system: SN12C renal
UO-31 renal = test system: UO-31 renal
A549 NSCLC = test system: A549 NSCLC
RXF 393 renal = test system: RXF 393 renal
OVCAR-8 ovarian = test system: OVCAR-8 ovarian
NCI-H23 lung = test system: NCI-H23 lung
HS 578T breast = test system: HS 578T breast
MALME-3M melanoma = test system: MALME-3M melanoma
IGROV1 ovarian = test system: IGROV1 ovarian
MOLT-4 leukemia = test system: MOLT-4 leukemia
PC-3 prostate = test system: PC-3 prostate
CCRF-CEM leukemia = test system: CCRF-CEM leukemia
HCT-116 colon = test system: HCT-116 colon
MDA-N = test system: MDA-N
BT-549 breast = test system: BT-549 breast
SK-MEL-2 melanoma = test system: SK-MEL-2 melanoma
SW-620 colon = test system: SW-620 colon
HOP-62 NSCLC = test system: HOP-62 NSCLC
COLO 205 colon = test system: COLO 205 colon
OVCAR-4 ovarian = test system: OVCAR-4 ovarian
MDA-MB-231 breast = test system: MDA-MB-231 breast
DU-145 prostate = test system: DU-145 prostate
SR leukemia = test system: SR leukemia
OVCAR-3 ovarian = test system: OVCAR-3 ovarian
TK-10 renal = test system: TK-10 renal
SF-268 CNS = test system: SF-268 CNS
K-562 leukemia = test system: K-562 leukemia
U251 CNS = test system: U251 CNS
786-0 renal = test system: 786-0 renal
NCI-H460 lung = test system: NCI-H460 lung
OVCAR-5 ovarian = test system: OVCAR-5 ovarian
SF-539 CNS = test system: SF-539 CNS
RPMI-8226 leukemia = test system: RPMI-8226 leukemia
CAKI-1 renal = test system: CAKI-1 renal
KM12 colon = test system: KM12 colon
SK-MEL-5 melanoma = test system: SK-MEL-5 melanoma
SF-295 CNS = test system: SF-295 CNS
UACC-257 melanoma = test system: UACC-257 melanoma
HL-60(TB) leukemia = test system: HL-60(TB) leukemia
HOP-92 NSCLC = test system: HOP-92 NSCLC
T-47D breast = test system: T-47D breast
LOX IMVI melanoma = test system: LOX IMVI melanoma
ACHN renal = test system: ACHN renal
NCI/ADR-RES ovarian = test system: NCI/ADR-RES ovarian
NCI-H522 lung = test system: NCI-H522 lung
HCT-15 colon = test system: HCT-15 colon
UACC-62 melanoma = test system: UACC-62 melanoma
M14 melanoma = test system: M14 melanoma
MCF7 breast = test system: MCF7 breast
SK-MEL-28 melanoma = test system: SK-MEL-28 melanoma
SNB-19 CNS = test system: SNB-19 CNS
MDA-MB-435 = test system: MDA-MB-435
EKVX NSCLC = test system: EKVX NSCLC
HCC-2998 colon = test system: HCC-2998 colon

Measured: TGI

COc1ccc(N(CC(=O)O)N=O)cc1
not listed: HCC-2998 colon
> 100 µM: all other assays above

CCOC(=O)N1CCNCCN(C(=O)OCC)CCNCC1
not listed: SK-OV-3 ovarian | MALME-3M melanoma | KM12 colon
> 100 µM: all other assays above
